A value given as a limit tells only on which side of the number the result lay.

`CC1=CC(O)C(O)C(C)(C)CC1OC(=O)c1ccccc1` (stereo not drawn): the melting point was in the range of 94 to 96 °C. In the case of `CC(C)(C)OC(=O)c1ncn2c1[C@@H]1CCCN1C(=O)c1c(I)cccc1-2`, the melting point lay within 241 to 242 °C. For `OCc1cc2c(N=C3SC[C@@H]4Cc5ccccc5CN34)cccc2cn1`, the melting point came out at 210 °C. To `Cc1ccc(S(=O)(=O)NC(=O)C(C)(N)C(C)C)cc1` (stereo not drawn) belongs 262 to 265 °C; to `O=C(O)c1ccc(-c2cnc(-c3ccc(C(F)(F)F)cc3)s2)cc1`, 294 to 295 °C; to `N#CC(C#N)=CN(Cc1ccc(Cl)c(Cl)c1)c1cc(C(F)(F)F)cc(C(F)(F)F)c1`, 102 to 103 °C.

Regarding `C=CC1(COC(C)=O)OC(OC2C(COCc3ccccc3)OC(OC)C(OCc3ccccc3)C2OCc2ccccc2)C(OC(C)=O)C(OC)C1OC(C)=O` (stereo not drawn), the melting point was 47 °C. In the case of `Cc1nn(C)c2cc(-c3nn(C(C)c4oc5ccccc5c(=O)c4-c4cccc(F)c4)c4ncnc(N)c34)ccc12` (stereo not drawn), the melting point lay in the range of 270 to 272 °C.

The molecule `CCOC(=O)c1cnn2c1N(C(=O)CCl)CC=C2c1cccc(C(F)(F)F)c1` displayed a melting point of 141 to 142 °C. Regarding `COC(=O)c1ccc2oc(-c3ccc(OC)cc3)cc2c1`, the melting point is 157 to 159 °C. To `O=C1C=CC(=O)N1c1cccc(Oc2cccc(Oc3cccc(N4C(=O)C=CC4=O)c3)c2)c1` belongs 138 to 140 °C; to `CCOC(=O)c1c[nH]c(Cc2ccc(OC)cc2)n1`, 119 to 121 °C.

The molecule `CCOC(=O)C(=CNC1CC1)C(=O)c1cc(Cl)c(F)c(F)c1F` showed a melting point of 71 to 73 °C. As for `CCOC(=O)c1ccc2c(c1)C(=C1CCN(C)CC1)c1ccccc1CC2`, the melting point fell in the range of 85 to 87 °C.

For `COc1cc(OC)c2c(-c3ccc4c(c3)OCO4)c3c(cc2c1)C(=O)NC3`, the melting point was 252 to 254 °C. `Fc1ccc(CNc2nc(OCc3ccccc3)nc(OCc3ccccc3)n2)cc1` came in with a melting point of 157 to 159 °C. The same measure for `COc1ccc(N(CCCC(=O)O)C(=O)C(C)N(C(=O)c2ccco2)c2ccc(OC)cc2)cc1` (stereo not drawn): 204 to 206 °C; for `O=S(=O)(c1ccccc1)N1CCC(C(=Nc2ccc(F)cc2)c2ccc(F)cc2)CC1`: 123 to 124 °C. The same measure for `O=C(O)c1cccc(OCc2ccccc2)c1[N+](=O)[O-]`: 198 to 200 °C.

`N#Cc1cc2c3c(cccc3c1N1CCCCC1)C(=O)N(O)C2=O` returned a melting point greater than 250 °C. Molecule `CC(=O)OC1CC(COC(=O)c2ccccc2)OC1n1cc(F)c(=O)[nH]c1=O` (stereo not drawn) displayed a melting point of 68 to 70 °C.

In turn, `COc1cc(Nc2c(C#N)cnc3cc(N4CCC(N5CCCC5)CC4)c(OC)cc23)c(Cl)cc1Cl` displayed a melting point of 225 to 227 °C. The molecule `CCCCCCCCCCCCCCN(CCCCCCCCCCCCCC)S(=O)(=O)c1ccc(C)cc1` came in with a melting point of 54 °C. For the molecule `O=C(O)c1ccc2c(c1)C(=Cc1ccccc1)OC2=O`, the melting point came to 261 °C. Consider `O=C(c1ccc(F)cc1)C1CCN(CCCn2c(=S)[nH]c3ccccc3c2=O)CC1`, for which the melting point came to 200 °C. Molecule `COc1ccc(CCC(=O)CCI)cc1` returned a melting point of 38 to 42 °C.

`O=C1NC(=O)C(C2CCc3cc(O)ccc32)S1` (stereo not drawn) came in with a melting point of 108 to 112 °C. The same measure for `CC[C@@H](Cc1ccc(OC)c(C(=O)NCc2ccccc2Oc2ccc(F)cc2)c1)C(=O)O`: 95 to 96 °C; for `CN(C)c1ccc2c(c1)NCC2`: 165 to 167 °C; for `CC(=S)NCC1CC(c2ccc(N3CCSCC3)c(F)c2)=NO1` (stereo not drawn): 219 to 220 °C.

The molecule `Cc1ccc(N2CCN(Cc3n[nH]c4c(F)cccc34)CC2)cc1` gave a melting point of 176 to 177 °C. `CC(C)c1cc2ncsc2cc1SC1=C(O)CC(CCc2ccc(F)cc2)(C(C)C)OC1=O` (stereo not drawn) came in with a melting point of 104 to 105 °C. For the molecule `Cc1ccc2c(c1)NC(=O)c1ccccc1O2`, the melting point fell in the range of 231 to 232 °C.

What is called melting point is the temperature, or range, at which the solid turns liquid.

Values taken from a melting point compilation (Tetko et al.; mined from patent text by program, amines drawn as free bases though some values may be those of a salt).
